From patent US20260217683A1, “PYRIDAZINONE HETEROCYCLIC COMPOUND MYOSIN II INHIBITOR AND USE THEREOF” (Xizang Haisco Pharmaceutical Co., Ltd., priority 2023, published 2026) come the findings set out here.

Holding throughout (format): biochemical
Test [1] deals with rabbit skeletal muscle myosin. Put plainly: Inhibition of hydrolysis of ATP by rabbit skeletal muscle myosin. As for the experimental part: The purpose of this test was to evaluate the ability of compounds to inhibit the hydrolysis of ATP by rabbit skeletal muscle myosin. The determination method was as follows:
• Preformed F-actin filaments (#AKF99-B, Cytoskeleton) were diluted to 1 mg/mL with Reaction buffer (25 mM Tris-HCL, pH 7.5+35 mM KCl+0.1 mM EGTA+1 mM MgCl2); • Rabbit myosin (#MYO2-A, Cytoskeleton) was diluted to 0.1 mg/mL with Resuspension buffer (15 mM Tris-HCL, PH7.5+0.2 M KCl+1 mM MgCl2); • ATP (#BSA04-001, Cytoskeleton) was diluted to 3 mM working solution with 15 mM Tris-HCL (PH=7.5);
• adding 13 μL reaction buffer+12 μL F-actin to actin control wells; • adding 10 μL reaction buffer+12 μL F-actin+3 μL myosin II to positive control wells; • adding 10 μL of compound working solution+12 μL of F-actin+3 μL of myosin II to the compound wells; • adding 5 μL of ATP working solution to all test wells to start the reaction, and simultaneously adding a sample to the Pi standard wells according to the instruction (#BK054, Cytoskeleton); • gently mixing and accurately incubating at 37° C. for 60 min; • adding 70 μL of CytoPhos Reagent (#BK054, Cytoskeleton) to each well and incubating for 10 min to stop the reaction.
• the OD value of each well was detected at 650 nm using the endpoint method. The standard curve was fitted according to Pi concentration and OD value, and the Pi concentration of each test well was obtained. Inhibition (%)=(Pi positive control well-Pi test well)/Pi positive control well*100%. The Inhibition %-[…] curve was fitted with Graphpad Prism 8 software, and IC50 was calculated.

In a further test the target is T1, cardiac myosin SII (Bos taurus, UniProt Q9BE39).
T1 construct: purchased Cytoskeleton #MYO3-A
Put plainly: Inhibition of hydrolysis of ATP by cardiac myosin SII. To be noted: 100 μM compound. As for the experimental part: The purpose of this test was to evaluate the ability of compounds to inhibit the hydrolysis of ATP by cardiac myosin SII. The determination method was as follows: • 1. Solution formulation: • Preformed F-actin filaments (#AKF99-B, Cytoskeleton) were diluted to 1 mg/mL with Reaction buffer (15 mM Tris-HCL. PH7.5+10 mM KCl+0.1 mM EGTA+2 mM MgCl2); • Cardiac Muscle myosin (#MYO3-A, Cytoskeleton) was diluted to 1 mg/mL with Resuspension buffer (15 mM Tris-HCL, PH7.5+0.2M KCl+1 mM MgCl2); • ATP (#BSA04-001, Cytoskeleton) was diluted to 3 mM working solution with 15 mM Tris-HCL (PH=7.5); • 2. Formulation of working solution of compounds: the final compound concentration was 100 μM • 3. Experimental steps: • adding 10 μL of compound working solution+12 μL of Preformed F-actin filaments+3 μL of Cardiac Muscle myosin to the compound wells; • adding 10 μL of reaction buffer containing DMSO+12 μL Preformed F-actin filaments +3 μL Cardiac Muscle myosin to positive control wells; • adding 10 μL of reaction buffer containing DMSO+12 μL Preformed F-actin filaments +3 μL Resuspension buffer to negative control wells; • adding 5 μL of 3 mM ATP working solution to all test wells to start the reaction, gently mixing and incubating at 37° C. for 2 h; • after the reaction was completed, taking 6 μL of reaction liquid, adding 24 μL of reaction buffer for 5-fold dilution, then detecting the content of the product Pi with a phosphate kit (#BK054, Cytoskeleton); • adding a sample to Pi standard wells according to the instructions; • adding 70 μL of CytoPhos Reagent (#BK054, Cytoskeleton) to each well and incubating at room temperature for 10 min before detection. • 4. Detection: • the OD value of each well was detected at 650 nm. The standard curve was fitted according to Pi standard concentration and OD value, and the Pi concentration of each test well was obtained. Inhibition (%)=(positive control well−test well)/positive control well*100%.

A further test concerns the target T2, smooth muscle myosin S1 (Gallus gallus, UniProt P10587).
T2 construct: purchased Cytoskeleton #CS-MYS05
Put plainly: Inhibition of hydrolysis of ATP by smooth muscle myosin S1 fragments. To be noted: for inhibition at 100 µM: 100 μM compound. As for the experimental part: The purpose of this test was to evaluate the ability of compounds to inhibit the hydrolysis of ATP by smooth muscle myosin Si fragments. The determination method was as follows: • 1. Solution formulation • F-actin polymer: Cardiac Actin powder (#CS-AD99, Cytoskeleton) was dissolved in a buffer (5 mM Pipes-KOH solution, PH=7.0, containing 100 μM ATP and 500 μM DTT) to form a 2 mg/mL solution and the solution was left at room temperature for 30 min; then 2 mM MgCl2 and 2 mM EGTA were added and the obtained system was left at room temperature for 40 min; • Smooth muscle SI fragment (#CS-MYS05, Cytoskeleton) was diluted with a pre-cooled PM12 buffer containing 1 mM DTT (12 mM Pipes-KOH solution, PH=7.0, containing 2 mM MgCl2) to form a 0.7 mg/mL solution; • ATP (#BSA04-001, Cytoskeleton) was diluted to 5 mM working solution with 15 mM Tris-HCL (PH=7.5); • 2. […] Experimental steps: • adding 10 μL of compound working solution+6 μL of F-actin polymer+4 μL of Smooth muscle Si fragment solution to the compound wells; • adding 10 μL of PM12 buffer containing DMSO+6 μL of F-actin polymer+4 μL of Smooth muscle S1 fragment solution to positive control wells; • adding 10 μL of PM12 buffer containing DMSO+6 μL of F-actin polymer+4 μL of PM12 buffer to negative control wells; • adding […] of 5 mM ATP working solution to all test wells to start the reaction, gently mixing and incubating at 37° C. for 20 min; • after the reaction was completed, taking 6 μLL of reaction liquid, adding 24 μL of PM12 buffer for 5-fold dilution, then detecting the content of the product Pi with a phosphate kit (#BK054, Cytoskeleton); • adding a standard according to the instructions, adding 70 μL of CytoPhos Reagent (#BK054, Cytoskeleton) to all wells and incubating at room temperature for 10 min before detection. • 4. Detection: • the OD value of each well was detected at 650 nm. The standard curve was fitted according to Pi standard concentration and OD value, and the Pi concentration of each test well was obtained. Inhibition (%)=(positive control well−test well)/positive control well*100%.

The mark [2] stands for this setting: inhibition of hydrolysis of ATP, class symbols, read-out: Rabbit skeletal muscle myosin (IC50).
The mark [3] stands for this setting: read-out: IC50 for inhibition of hydrolysis of ATP by rabbit skeletal muscle myosin.

Read-outs that look alike come from different tables or passages of the source.

T2 sequence (P10587 84-789 limits assumed): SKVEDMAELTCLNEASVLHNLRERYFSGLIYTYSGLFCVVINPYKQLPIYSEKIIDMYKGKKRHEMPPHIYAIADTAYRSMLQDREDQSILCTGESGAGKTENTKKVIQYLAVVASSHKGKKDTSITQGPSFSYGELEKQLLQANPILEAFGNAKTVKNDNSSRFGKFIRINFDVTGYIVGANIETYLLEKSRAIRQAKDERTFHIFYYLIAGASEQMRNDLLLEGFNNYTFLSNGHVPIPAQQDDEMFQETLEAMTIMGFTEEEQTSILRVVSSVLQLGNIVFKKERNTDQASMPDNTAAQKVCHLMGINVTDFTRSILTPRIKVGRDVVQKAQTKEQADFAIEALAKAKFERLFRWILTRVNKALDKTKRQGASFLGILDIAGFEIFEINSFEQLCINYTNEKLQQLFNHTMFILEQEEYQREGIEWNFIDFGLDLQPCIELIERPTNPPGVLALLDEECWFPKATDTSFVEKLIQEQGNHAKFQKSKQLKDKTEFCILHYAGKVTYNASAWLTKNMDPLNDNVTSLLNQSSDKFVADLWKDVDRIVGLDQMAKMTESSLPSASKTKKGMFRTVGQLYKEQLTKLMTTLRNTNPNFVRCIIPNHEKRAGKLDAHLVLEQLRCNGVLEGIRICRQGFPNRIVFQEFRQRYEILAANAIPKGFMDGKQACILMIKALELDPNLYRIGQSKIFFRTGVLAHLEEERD
T2 sequence (P02607 whole entry partner): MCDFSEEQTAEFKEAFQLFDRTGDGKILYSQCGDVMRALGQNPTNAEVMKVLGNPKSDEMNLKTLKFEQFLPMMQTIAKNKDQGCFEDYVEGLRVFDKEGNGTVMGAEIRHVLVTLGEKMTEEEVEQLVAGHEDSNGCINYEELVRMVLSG
T1 sequence (Q9BE39 whole entry): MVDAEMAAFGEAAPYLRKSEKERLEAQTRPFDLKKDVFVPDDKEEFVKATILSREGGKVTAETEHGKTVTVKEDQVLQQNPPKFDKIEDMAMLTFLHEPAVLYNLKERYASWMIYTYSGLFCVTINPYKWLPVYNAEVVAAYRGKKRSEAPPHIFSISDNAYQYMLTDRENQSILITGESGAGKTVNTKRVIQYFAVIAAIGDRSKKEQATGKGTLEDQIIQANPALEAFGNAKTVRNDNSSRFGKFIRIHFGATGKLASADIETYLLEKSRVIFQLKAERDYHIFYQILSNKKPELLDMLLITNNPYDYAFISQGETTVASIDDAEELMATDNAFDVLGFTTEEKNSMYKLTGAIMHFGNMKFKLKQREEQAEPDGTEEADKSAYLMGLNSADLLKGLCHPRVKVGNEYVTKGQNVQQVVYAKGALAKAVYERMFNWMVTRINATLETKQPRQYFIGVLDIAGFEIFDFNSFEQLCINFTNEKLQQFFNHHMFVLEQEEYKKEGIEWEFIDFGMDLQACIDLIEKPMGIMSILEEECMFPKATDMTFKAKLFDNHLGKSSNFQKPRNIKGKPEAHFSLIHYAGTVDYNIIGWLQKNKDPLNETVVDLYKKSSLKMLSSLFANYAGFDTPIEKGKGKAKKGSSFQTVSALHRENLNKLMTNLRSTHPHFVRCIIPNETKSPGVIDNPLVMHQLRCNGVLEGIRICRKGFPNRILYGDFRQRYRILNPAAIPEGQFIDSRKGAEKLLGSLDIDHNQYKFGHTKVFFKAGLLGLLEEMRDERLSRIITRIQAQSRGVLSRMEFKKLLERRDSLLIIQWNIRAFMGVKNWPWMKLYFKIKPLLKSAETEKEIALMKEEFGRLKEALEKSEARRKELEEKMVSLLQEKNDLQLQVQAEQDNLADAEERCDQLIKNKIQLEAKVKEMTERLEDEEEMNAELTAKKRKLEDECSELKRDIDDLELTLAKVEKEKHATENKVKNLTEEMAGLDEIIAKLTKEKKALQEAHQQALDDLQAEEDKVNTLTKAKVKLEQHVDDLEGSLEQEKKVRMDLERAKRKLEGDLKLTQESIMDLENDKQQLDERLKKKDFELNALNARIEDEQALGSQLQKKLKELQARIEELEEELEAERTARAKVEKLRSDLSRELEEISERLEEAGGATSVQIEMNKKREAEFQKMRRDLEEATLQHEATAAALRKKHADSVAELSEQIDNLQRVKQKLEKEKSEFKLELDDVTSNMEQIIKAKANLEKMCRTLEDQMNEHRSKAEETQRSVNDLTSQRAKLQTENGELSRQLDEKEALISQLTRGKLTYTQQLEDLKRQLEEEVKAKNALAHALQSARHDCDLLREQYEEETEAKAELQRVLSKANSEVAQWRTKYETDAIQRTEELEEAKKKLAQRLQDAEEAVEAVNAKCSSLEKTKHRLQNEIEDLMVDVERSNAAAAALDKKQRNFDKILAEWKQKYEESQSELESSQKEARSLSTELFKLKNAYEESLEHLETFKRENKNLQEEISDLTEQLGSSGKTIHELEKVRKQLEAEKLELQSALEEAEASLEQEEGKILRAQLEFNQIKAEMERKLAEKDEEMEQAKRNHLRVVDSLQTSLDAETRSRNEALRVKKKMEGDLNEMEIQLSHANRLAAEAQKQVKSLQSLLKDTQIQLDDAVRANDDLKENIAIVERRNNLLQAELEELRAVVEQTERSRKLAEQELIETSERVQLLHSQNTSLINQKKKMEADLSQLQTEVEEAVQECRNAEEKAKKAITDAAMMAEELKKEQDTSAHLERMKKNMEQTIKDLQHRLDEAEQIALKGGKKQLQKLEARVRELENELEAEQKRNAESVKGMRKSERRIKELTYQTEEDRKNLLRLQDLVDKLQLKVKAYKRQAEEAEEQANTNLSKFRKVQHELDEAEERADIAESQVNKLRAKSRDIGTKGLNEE
T1 sequence (P85100 whole entry partner): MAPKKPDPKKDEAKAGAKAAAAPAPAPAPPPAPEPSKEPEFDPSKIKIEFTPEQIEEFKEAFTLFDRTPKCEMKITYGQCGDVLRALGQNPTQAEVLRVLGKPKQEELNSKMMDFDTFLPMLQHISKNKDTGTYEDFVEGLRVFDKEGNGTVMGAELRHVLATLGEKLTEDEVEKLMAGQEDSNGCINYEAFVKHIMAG
T1 sequence (Q3SZE5 whole entry partner): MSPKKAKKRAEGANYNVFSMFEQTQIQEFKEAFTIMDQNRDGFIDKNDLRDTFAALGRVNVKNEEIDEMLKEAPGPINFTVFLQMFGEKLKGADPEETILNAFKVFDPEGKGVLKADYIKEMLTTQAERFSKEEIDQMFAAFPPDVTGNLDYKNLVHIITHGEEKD

Take `O=c1ccc(-c2cnc(OCC(F)F)nc2)nn1Cc1ccc2c(c1)CCC2` [Compound 67]: the IC50 in test [1] (setting [2]) was below 2.5 µM. Also, the inhibition at 100 µM at cardiac myosin SII stood at 2%; against smooth muscle myosin S1, 3%.

As to `O=c1ccc(-c2cnc(OCCCF)nc2)nn1Cc1ccc2c(c1)CCC2` [Compound 71], the IC50 in test [1] (setting [2]) was below 2.5 µM. Also, on cardiac myosin SII, the inhibition at 100 µM worked out at 21%.

Consider `O=c1ccc(-c2cnc(OCC(F)(F)F)nc2)nn1Cc1cc(F)c2c(c1)CCC2` [Compound 73], for which the half-inhibitory concentration (IC50) is below 2.5 µM in test [1] (setting [2]) and 0.55 µM in test [1] (setting [3]). Besides, the inhibition at 100 µM at cardiac myosin SII was 10.2%; against smooth muscle myosin S1 it was -3%.

As to `O=c1ccc(-c2cnc(OCC(F)F)nc2)nn1Cc1cc(F)c2c(c1)CCC2` [Compound 74], the IC50 in test [1] (setting [2]) was below 2.5 µM; in test [1] (setting [3]), 0.29 µM. In addition, the inhibition at 100 µM turned out to be 15.8% against cardiac myosin SII and 5.3% at smooth muscle myosin S1.

`O=c1ccc(-c2cnc(OCC3CC3)nc2)nn1Cc1ccc2c(c1)CCC2` [Compound 80]: the IC50 is below 2.5 µM in test [1] (setting [2]) and 0.5 µM in test [1] (setting [3]). Besides, the inhibition at 100 µM against cardiac myosin SII was -17.8%. The inhibition at 50 µM at smooth muscle myosin S1 was 9.3%.

As to `O=c1ccc(-c2cnc(OCC3CC3(F)F)nc2)nn1Cc1ccc2c(c1)CCC2` (stereo not shown) [Compound 81], in test [1] (setting [2]), the IC50 is below 2.5 µM. Besides, the inhibition at 100 µM against cardiac myosin SII was -5.6%. At smooth muscle myosin S1, the inhibition at 50 µM amounted to 10.9%.

Turning to `O=c1ccc(-c2cnc(OC3CC3)nc2)nn1Cc1ccc2c(c1)CCC2` [Compound 84], in test [1] (setting [2]), the IC50 was below 2.5 µM. Besides, the inhibition at 100 µM at cardiac myosin SII is -3.8%. Besides, at smooth muscle myosin S1, the inhibition at 50 µM came out at 20.2%.

Turning to `O=c1ccc(-c2cnc(OCC(F)(F)F)nc2)nn1Cc1ccc2c(c1)CCCC2(F)F` [Compound 89], the 50% inhibitory concentration (IC50) in test [1] (setting [2]) fell in the range of 2.5 to 20 µM. Also, the inhibition at 100 µM at cardiac myosin SII turned out to be 13.7%; against smooth muscle myosin S1, 17.6%.

With `O=c1ccc(-c2cnc(OCC(F)(F)F)nc2)nn1Cc1ccc2c(c1)C(F)(F)CC2` [Compound 93], the IC50 in test [1] (setting [2]) was below 2.5 µM; in test [1] (setting [3]), 0.7 µM. In addition, the inhibition at 100 µM against cardiac myosin SII was -16%; against smooth muscle myosin S1, -14%.

Take `O=c1ccc(-c2cnc(OC3CCOCC3)nc2)nn1Cc1ccc2c(c1)CC2` [Compound 95]: the IC50 in test [1] (setting [2]) fell in the range of 2.5 to 20 µM. For the same molecule, the figures for the inhibition at 100 µM at cardiac myosin SII and at smooth muscle myosin S1 were 2% and -2%, respectively.

With `O=c1ccc(-c2cnc(OC3CCC(F)(F)CC3)nc2)nn1Cc1ccc2c(c1)CC2` [Compound 96], the IC50 in test [1] (setting [2]) fell in the range of 2.5 to 20 µM. For the same molecule, the inhibition at 100 µM on cardiac myosin SII is -9%.

`O=c1cc2c(nn1Cc1ccc3c(c1)CC3)-c1cnc(OCC(F)(F)F)nc1CC2` [Compound 102]: the IC50 in test [1] (setting [2]) is below 2.5 µM; in test [1] (setting [3]) it was 0.4 µM. The inhibition at 100 µM against cardiac myosin SII is -5%; against smooth muscle myosin S1, -2%.

Consider `CN1CC(Oc2ncc(-c3ccc(=O)n(Cc4ccc5c(c4)CC5)n3)cn2)C1` [Compound 104], for which the half-inhibitory concentration (IC50) was below 2.5 µM in test [1] (setting [2]) and 0.8 µM in test [1] (setting [3]). The inhibition at 100 µM at cardiac myosin SII is 8.9%; against smooth muscle myosin S1 it was 20.7%.

`N#CC1(COc2ncc(-c3ccc(=O)n(Cc4ccc5c(c4)CCC5)n3)cn2)CC1` [Compound 105]: the values for the 50% inhibitory concentration (IC50) in test [1] (setting [2]) and in test [1] (setting [3]) were below 2.5 µM and 0.9 µM, respectively. For the same molecule, the inhibition at 100 µM against cardiac myosin SII and on smooth muscle myosin S1 was 16% each time.

Regarding `O=c1ccc(-c2cnc(OCC3(F)CC3)nc2)nn1Cc1ccc2c(c1)CCC2` [Compound 108], the results for the IC50 in test [1] (setting [2]) and in test [1] (setting [3]) were below 2.5 µM and 0.2 µM, respectively. Also, the inhibition at 100 µM is 4.5% against cardiac myosin SII and -0.9% against smooth muscle myosin S1.

As to `O=c1ccc(-c2cnc(C3CCC3)nc2)nn1Cc1ccc2c(c1)CC2` [Compound 109], the IC50 was below 2.5 µM in test [1] (setting [2]) and 0.1 µM in test [1] (setting [3]). Further, the values for the inhibition at 100 µM on cardiac myosin SII and at smooth muscle myosin S1 were 9.7% and -3.5%, respectively.

For the molecule `CC(F)(F)COc1ncc(-c2ccc(=O)n(Cc3ccc4c(c3)CCC4)n2)cn1` [Compound 110], the IC50 in test [1] (setting [2]) is below 2.5 µM; in test [1] (setting [3]), 0.8 µM. Further, the inhibition at 100 µM was 1% against cardiac myosin SII and -6% at smooth muscle myosin S1.

`O=c1cc2c(nn1Cc1ccc3c(c1)CC3)-c1cnc(Oc3cncc(F)c3)nc1CC2` [Compound 112]: in test [1] (setting [2]), the IC50 is below 2.5 µM. Further, the inhibition at 100 µM was 2% against cardiac myosin SII and -9% at smooth muscle myosin S1.

Take `O=c1ccc(-c2cnc(OCC3(F)CCC3)nc2)nn1Cc1ccc2c(c1)CCC2` [Compound 113]: in test [1] (setting [2]), the IC50 is below 2.5 µM. Besides, the inhibition at 100 µM against cardiac myosin SII was 0%; on smooth muscle myosin S1, -13%.

Take `O=c1ccc(-c2cnc(Oc3cncc(F)c3)nc2)nn1Cc1ccc2c(c1)CCC2` [Compound 115]: in test [1] (setting [2]), the IC50 was below 2.5 µM. Further, the inhibition at 100 µM at cardiac myosin SII and on smooth muscle myosin S1 was 3% in each case.

With `O=c1ccc(-c2cnc(O[C@H]3CCOC3)nc2)nn1Cc1ccc2c(c1)CCC2` [Compound 120], the IC50 in test [1] (setting [2]) was below 2.5 µM; in test [1] (setting [3]), 0.7 µM. Besides, the inhibition at 100 µM is 14% against cardiac myosin SII and -3% on smooth muscle myosin S1.

`O=c1ccc(-c2cnc(O[C@@H]3CCOC3)nc2)nn1Cc1ccc2c(c1)CCC2` [Compound 126]: the IC50 in test [1] (setting [2]) is below 2.5 µM; in test [1] (setting [3]), 0.5 µM. Besides, the inhibition at 100 µM against cardiac myosin SII and against smooth muscle myosin S1 was 7% in each case.

With `O=c1ccc(-c2cnc(Oc3cncc(Cl)c3)nc2)nn1Cc1ccc2c(c1)CCC2` [Compound 132], the IC50 was below 2.5 µM in test [1] (setting [2]) and 0.4 µM in test [1] (setting [3]). Also, the inhibition at 100 µM at cardiac myosin SII turned out to be 1%.

Turning to `O=c1ccc(-c2cnc(OCC(F)(F)F)nc2)nn1Cc1ccc2c(c1)CC1CC21` (stereo not shown) [Compound 161], the figures for the IC50 in test [1] (setting [2]) and in test [1] (setting [3]) were below 2.5 µM and 0.5 µM, respectively. For the same molecule, on cardiac myosin SII (100 µM), the “Cardiac myosin SII (Inhibition @ 100 μM)” value stood at 5%.

The term IC50 denotes the midpoint of a concentration-inhibition curve. The term inhibition denotes the change of the read-out against control, counted positive when it falls.
